Test results: US8946412B2 (priority 2009, dated 2015)
Counter-ions that a name gives are not always drawn. Like-named read-outs stand apart in the source and are kept apart here.

Molecular target: α7-subtype of nicotinic receptors (Rattus norvegicus, UniProt Q05941)
Experiment: biochemical
Format: binding

Sequence of α7-subtype of nicotinic receptors (Q05941 23-502): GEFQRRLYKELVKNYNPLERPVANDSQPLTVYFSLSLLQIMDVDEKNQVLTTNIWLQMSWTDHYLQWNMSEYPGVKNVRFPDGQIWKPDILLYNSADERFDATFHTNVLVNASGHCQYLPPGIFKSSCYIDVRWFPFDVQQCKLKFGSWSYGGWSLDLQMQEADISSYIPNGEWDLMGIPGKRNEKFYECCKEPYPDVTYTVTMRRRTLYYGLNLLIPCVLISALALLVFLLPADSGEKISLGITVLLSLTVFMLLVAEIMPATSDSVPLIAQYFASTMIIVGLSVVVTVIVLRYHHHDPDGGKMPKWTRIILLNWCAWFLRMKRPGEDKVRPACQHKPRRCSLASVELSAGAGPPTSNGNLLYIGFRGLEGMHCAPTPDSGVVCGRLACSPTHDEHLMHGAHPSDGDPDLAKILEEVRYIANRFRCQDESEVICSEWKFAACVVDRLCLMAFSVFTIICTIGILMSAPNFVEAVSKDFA

FCCn1cccc1-c1nnc(N2CCN3CCC2CC3)o1 [Compound 1, 2-(1,4-Diazabicyclo[3.2.2]nonan-4-yl)-5-[1-(2-fluoroethyl)pyrrol-2-yl]-1,3,4-oxadiazole fumaric acid salt]
IC50: 11 nM

c1c[nH]c(-c2nnc(N3CCN4CCC3CC4)o2)c1 [Compound 3, 2-(1,4-Diazabicyclo[3.2.2]nonan-4-yl)-5-(1H-pyrrol-2-yl)-1,3,4-oxadiazole free base]
IC50 (rat brain, concentration inhibiting specific binding of 3H-α-bungarotoxin by 50%, read-out: IC50 Inhibition of 3H-α-Bungarotoxine Binding): 17 nM
